A short description of the series: physchem. The text has this: Here, Ka is the dissociation equilibrium constant of a conjugate acid in water. This additive is typically a pyridine-based additive or an additive having a heterocycle. […] However, the pyridine-based additives are not limited thereto. On the other hand, among specific examples of additives having a heterocycle are N-methylimidazole(MIm), 2,4-lutidine(24-Lu), 2,5-lutidine(25-Lu), 2,6-lutidine(26-Lu), 3,4-lutidine(34-Lu) and 3,5-lutidine(35-Lu). However, the additives having a heterocycle are not limited thereto.

The pKa is the pH at which an ionisable group is half protonated. Low readings indicate a group that gives up its proton readily, high ones a group that holds its proton tightly.

As for `COc1ccccn1` [2-MeO—Py], the “pKa (water)” value is given as 3.28. In turn, `c1ccc2ncccc2c1` [quinoline] returned a pKa of 4.97. `c1cnccn1` [pyrazine] gave a pKa of 0.6. Still for that read-out and setting: to `Cn1ccnc1` [Mlm, N-methylimidazole] belongs 7.3. On to `Cc1ccncc1` [4-pic], for which the “pKa (water)” value was determined as 6.03. Still for that read-out and setting: under `c1ccc2c(c1)ccc1ncccc12` [56-benzoquinoline] stands 5.15. Turning to `COc1cccnc1` [3-MeO—Py], the “pKa (water)” value is 4.88. Same read-out and setting: to `N#Cc1ccncc1` [4-CN—Py] belongs 1.9; to `Cn1cnc2ccccc21` [NMB], 5.6. Turning to `CC(C)(C)c1ccncc1` [TBP, 4-tert-butylpyridine], the pKa was 5.99. In turn, `c1ccnnc1` [pyridazine] returned a pKa of 2.1. For `Nc1ccncc1` [4-NH2—Py], the “pKa (water)” value is recorded as 9.17. Take `c1ccc2nc3ccccc3cc2c1` [acridine]: the pKa is 5.6. Regarding `Cc1cccc(C)n1` [26-Lu, 2,6-lutidine], the pKa turned out to be 6.77 and the “pKa (water)” value came to 6.77.

On to `COC(=O)c1cccnc1` [3-COOMe—Py], for which the “pKa (water)” value is on record as 3.13. For the compound `Cc1ccncc1C` [34-Lu, 3,4-lutidine], the pKa is 6.52. Compound `Cc1ccnc(C)c1` [24-Lu, 2,4-lutidine] returned a pKa of 6.72.

In turn, `CCc1ccncc1` [4-Et—Py, 4-ethylpyridine] returned a pKa of 6.04. Regarding `CNc1ccncc1` [4-MeNH—Py], the “pKa (water)” value amounted to 12.5.

Consider Me-pyrazole, for which the “pKa (water)” value came out at 2.1. In the case of `c1ccc(-c2ccccn2)nc1` [bpy], the “pKa (water)” value was determined as 4.42.

For the compound `c1ccc2cnccc2c1` [isoquinoline], the pKa is 5.38.

In turn, `Cc1ccc(C)nc1` [25-Lu, 2,5-lutidine] had a pKa of 6.47. As for `COc1ccncc1` [4-MeO—py, 4-methoxypyridine], the pKa came to 6.62 and the “pKa (water)” value is recorded as 6.62. In the case of `Cc1cncc(C)c1` [35-Lu, 3,5-lutidine], the pKa worked out at 6.14.

Turning to `Brc1cccnc1` [3-Br—Py], the “pKa (water)” value is 2.84.
